Measurements as given in patent publication US20180228730A1, “USE OF WATER-SOLUBLE POLYMERS BASED ON N-VINYLPYRROLIDONE AND ACRYLIC ACID AS PHARMACEUTICAL ADJUVANTS” (BASF SE, priority 2015, published 2018).
Where two headings read alike, the source gives them in different places.

Experiments:
[1] = demineralized water, 100 mg haloperidol per 250 ml, hard gelatine capsules
Description: The release of the active ingredient from the spray-dried polymeric salt was carried out in demineralized water. The initial weight was calculated on 100 mg of haloperidol per 250 ml of release medium. The polymeric salt or the crystalline substance correspondingly weighed out were filled into hard gelatine capsules.

[2] = Release of loperamide from extrudates in demineralized water (release device, UV/VIS); format: physicochemical; conditions: 250 ml demineralized water, 37° C.; spectroscopic detection
Description: The active ingredient release from samples 14, 15, 16 and 17 were tested in a release device with automatic spectroscopic measurement (00501FEXXX-D). The extrudates having 5% content of active ingredient were added directly to the release medium at the beginning of the experiment. […] The mixtures were filled into hard gelatine capsules and released therefrom.
Procedure for release (2 hours):
Conditions 0-2 hours: Medium: • 250 ml of demineralized water; • paddle stirrer 50 rpm; • temperature 37° C. • content determination UV/VIS with 1 cm path length cuvette • active ingredient amount 250 mg
The results of the releases are compiled in the following tables and diagrams. The release is complete in all cases.

Row | SMILES | Release of haloperidol ([1]; 0 min) [%] | Release of haloperidol ([1]; 2 min) [%] | Release of haloperidol ([1]; 4 min) [%] | Release of haloperidol ([1]; 6 min) [%] | Release of haloperidol ([1]; 8 min) [%] | Release of haloperidol ([1]; 10 min) [%] | Release of haloperidol ([1]; 30 min) [%] | Release of haloperidol ([1]; 60 min) [%] | Release of haloperidol ([1]; 120 min) [%] | Dissolution in the release medium [2]
1 | O=C(CCCN1CCC(O)(c2ccc(Cl)cc2)CC1)c1ccc(F)cc1 [Crystalline haloperidol, haloperidol] | 0.0 | 0.1 | 0.2 | 0.3 | 0.4 | 0.6 | 1.5 | 1.8 | 2.3 | 
2 | CN(C)C(=O)C(CCN1CCC(O)(c2ccc(Cl)cc2)CC1)(c1ccccc1)c1ccccc1 [crystalline loperamide (base), loperamide] |  |  |  |  |  |  |  |  |  | no dissolution at all
